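Protocol summary: plate cells (96-well), add compound at 5 concentrations, incubate 48 h, interpolate endpoints linearly. GI50 marks 50% less growth.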 Active and inactive are the calls of the source. Rule as the data show it: active = GI50 up to about 1.1 µM and inactive = higher. Non-standard residues stand in square brackets, D forms with d. Residues, ends and D or L forms follow the SMILES beside them. *: point of attachment. X30 = COC1=CC(=O)N(C(=O)[C@@H](O*)C(C)C)[C@H]1Cc1ccccc1; NMeL = CN[C@@H](CC(C)C)C(=O)O; Cbz = O=C(OCc1ccccc1)*
Experiments:
Assay in all cases: NCI-60 cell line screen, 48 h
MOLT-4 = system: MOLT-4
OVCAR-8 = system: OVCAR-8
SNB-19 = system: SNB-19
SF-295 = system: SF-295
Malme-3M = system: Malme-3M
SR = system: SR
NCI-H460 = system: NCI-H460
UO-31 = system: UO-31
SN12C = system: SN12C
KM12 = system: KM12
NCI/ADR-RES = system: NCI/ADR-RES
EKVX = system: EKVX
SF-539 = system: SF-539
HCT-15 = system: HCT-15
UACC-257 = system: UACC-257
LOX IMVI = system: LOX IMVI
IGROV-1 = system: IGROV-1
DU-145 = system: DU-145
MDA-N = system: MDA-N

SMILES | GI50 (MOLT-4) | GI50 (OVCAR-8) | GI50 (SNB-19) | GI50 (SF-295) | GI50 (Malme-3M) | GI50 (SR) | GI50 (NCI-H460) | GI50 (UO-31) | GI50 (SN12C) | GI50 (KM12) | GI50 (NCI/ADR-RES) | GI50 (EKVX) | GI50 (SF-539) | GI50 (HCT-15) [µM] | GI50 (UACC-257) | GI50 (LOX IMVI) | GI50 (IGROV-1) | GI50 (DU-145) | GI50 (MDA-N)
CN(C)CCn1c(=O)c2ccc(NCCCN(C)CCCNc3ccc4c(=O)n(CCN(C)C)c(=O)n5c6ccccc6c(=O)c3c45)c3c(=O)c4ccccc4n(c1=O)c23 | < 0.01 µM (active) | < 0.01 µM (active) | < 0.01 µM (active) | < 0.01 µM (active) | 0.361 µM (active) | < 0.01 µM (active) | < 0.01 µM (active) | < 0.0285 µM (active) | < 0.01 µM (active) | < 0.01 µM (active) | 0.0339 µM (active) | 0.051 µM (active) | < 0.01 µM (active) | < 0.01 | 0.208 µM (active) | < 0.01 µM (active) | < 0.01 µM (active) | < 0.01 µM (active) | 
C[C@H](NC(=O)C(Cc1ccccc1)(Cc1ccc(O)cn1)NC(=O)c1ccccc1)c1ccccc1 (stereo partly specified) | 16.9 µM (inactive) | 20.4 µM (inactive) | 18.8 µM (inactive) | 14.6 µM (inactive) | 17.5 µM (inactive) |  |  | 14.8 µM (inactive) | 16.9 µM (inactive) | 19.8 µM (inactive) | 17.4 µM (inactive) | 14.7 µM (inactive) | 19.2 µM (inactive) | 18 | 17.7 µM (inactive) | 14.8 µM (inactive) | 16.3 µM (inactive) | 18.6 µM (inactive) | 15.5 µM (inactive)
O=C1[C@H]2ON(c3ccccc3)C(c3ccccc3)[C@H]2C(=O)N1c1ccc(Cc2ccc(N3C(=O)[C@@H]4ON(c5ccccc5)C(c5ccccc5)[C@@H]4C3=O)cc2)cc1 (stereo partly specified) | > 100 µM (inactive) |  |  | > 100 µM (inactive) | > 100 µM (inactive) |  | > 100 µM (inactive) | > 100 µM (inactive) | > 100 µM (inactive) | > 100 µM (inactive) |  |  | > 100 µM (inactive) | > 100 | > 100 µM (inactive) | > 100 µM (inactive) | > 100 µM (inactive) |  | 
COc1ccc2oc(=N)c(C(=O)Nc3ccccn3)cc2c1 | > 100 µM (inactive) | > 100 µM (inactive) | 87.1 µM (inactive) |  | 61.2 µM (inactive) | > 100 µM (inactive) | > 100 µM (inactive) |  | > 100 µM (inactive) | > 100 µM (inactive) | > 100 µM (inactive) | 62.4 µM (inactive) |  | > 100 | > 100 µM (inactive) | > 100 µM (inactive) | 53.6 µM (inactive) | > 100 µM (inactive) | 
O=C(Cc1ccccc1)NN1C(=O)/C(=C\c2ccccc2O)S/C1=N\c1ccccc1 | > 100 µM (inactive) | > 100 µM (inactive) | > 100 µM (inactive) | > 100 µM (inactive) |  |  | > 100 µM (inactive) | > 100 µM (inactive) | > 100 µM (inactive) | > 100 µM (inactive) | > 100 µM (inactive) | > 100 µM (inactive) | > 100 µM (inactive) | > 100 | > 100 µM (inactive) |  | > 100 µM (inactive) | > 100 µM (inactive) | > 100 µM (inactive)
Cc1nc(Nc2ccc(F)cc2)c2sc(=S)n(-c3ccc(F)cc3)c2n1 |  | 15.6 µM (inactive) | 14.7 µM (inactive) | 14.3 µM (inactive) | 14.6 µM (inactive) | 3.27 µM (inactive) | 15.5 µM (inactive) | 16.5 µM (inactive) | 14 µM (inactive) | 15 µM (inactive) | 17.1 µM (inactive) | 13.1 µM (inactive) |  | 3.09 | 13.4 µM (inactive) | 4.99 µM (inactive) | 10.6 µM (inactive) | 13.4 µM (inactive) | 
CC(C)(C)C(=O)c1c(O)c2ccccc2c2ccccc2c1=O | > 100 µM (inactive) | 82.6 µM (inactive) | > 100 µM (inactive) | 48.6 µM (inactive) |  |  | > 100 µM (inactive) | 33.2 µM (inactive) | > 100 µM (inactive) | 79.3 µM (inactive) |  | > 100 µM (inactive) | > 100 µM (inactive) | 64.4 | > 100 µM (inactive) | 47.8 µM (inactive) |  | > 100 µM (inactive) | > 100 µM (inactive)
CCOC(=O)Cc1[nH]c(C(=O)c2ccccc2)cc1C(=O)c1ccccc1 | 14.8 µM (inactive) | > 10 µM (inactive) | > 100 µM (inactive) | > 10 µM (inactive) | 33.6 µM (inactive) | 38.4 µM (inactive) | 71.8 µM (inactive) | > 10 µM (inactive) | > 100 µM (inactive) | 48.9 µM (inactive) | > 100 µM (inactive) | > 100 µM (inactive) |  | 68.7 | > 10 µM (inactive) | 22.2 µM (inactive) | > 10 µM (inactive) | > 10 µM (inactive) | 
CC(C)(C)c1cc(C(=O)/C=C/C=C/c2ccccc2)cc(C(C)(C)C)c1O | 12.8 µM (inactive) | 19.5 µM (inactive) | 22.3 µM (inactive) | 27.2 µM (inactive) | 47.9 µM (inactive) | 3.24 µM (inactive) | 15.4 µM (inactive) | 17.6 µM (inactive) | 27.4 µM (inactive) | > 28.2 µM (inactive) | 8.73 µM (inactive) | 25.4 µM (inactive) | 14.5 µM (inactive) | 15.9 | 6.53 µM (inactive) | 19.8 µM (inactive) | 33.3 µM (inactive) | 29.4 µM (inactive) | 
C/C(=N\NC(=S)N1CC2CCC(CC2)C1)c1cccc(C)n1 | 0.01 µM (active) | 0.294 µM (active) | 1.75 µM (inactive) | 0.445 µM (active) | 2.11 µM (inactive) |  | 0.248 µM (active) | 0.505 µM (active) | 0.566 µM (active) | 0.422 µM (active) | 0.01 µM (active) | 0.488 µM (active) | 0.378 µM (active) | 0.537 | 0.142 µM (active) | 0.78 µM (active) | 0.815 µM (active) | 0.617 µM (active) | 2.82 µM (inactive)
COc1cccc(/C=N/n2c(Cc3ccccc3)n[nH]c2=O)c1 | > 100 µM (inactive) | 69 µM (inactive) | > 100 µM (inactive) | 38.5 µM (inactive) | > 67.6 µM (inactive) |  | > 100 µM (inactive) | > 100 µM (inactive) | > 19.7 µM (inactive) | > 76.2 µM (inactive) | > 31.9 µM (inactive) | > 72.6 µM (inactive) | > 100 µM (inactive) | > 100 | > 100 µM (inactive) | 48.9 µM (inactive) |  | > 100 µM (inactive) | > 100 µM (inactive)
O=c1[nH]nc(-c2ccccc2)n1/N=C/c1cccs1 | 31.6 µM (inactive) | 37.4 µM (inactive) | > 100 µM (inactive) | 72.3 µM (inactive) | 62.5 µM (inactive) |  | 36.3 µM (inactive) | 58.3 µM (inactive) | 46.8 µM (inactive) | > 100 µM (inactive) | 32.7 µM (inactive) | 83.6 µM (inactive) | 95.5 µM (inactive) | 44.3 | 56.8 µM (inactive) | 43.2 µM (inactive) |  | 32.3 µM (inactive) | 74.8 µM (inactive)
CC(=O)C(C(C)=O)=C1CCCC(O)O1 (stereo unspecified) | > 100 µM (inactive) | > 100 µM (inactive) | > 100 µM (inactive) | > 100 µM (inactive) | > 100 µM (inactive) | 62.2 µM (inactive) | > 100 µM (inactive) | > 100 µM (inactive) | > 100 µM (inactive) | > 100 µM (inactive) | > 100 µM (inactive) | > 100 µM (inactive) | > 100 µM (inactive) | > 100 | > 100 µM (inactive) |  | > 100 µM (inactive) | > 100 µM (inactive) | 
COC(=O)/C=C/c1ccccc1N=[S@](C)(=O)c1ccc(C)cc1 | 19.8 µM (inactive) | 28.5 µM (inactive) | 19.1 µM (inactive) | 5.96 µM (inactive) | 14 µM (inactive) | 3.49 µM (inactive) | 18.4 µM (inactive) | 50.4 µM (inactive) | 34.9 µM (inactive) | 8.53 µM (inactive) | 7.13 µM (inactive) | 37.4 µM (inactive) | 21.8 µM (inactive) | 6.14 | 8.85 µM (inactive) | 23.5 µM (inactive) | 18 µM (inactive) | 29.1 µM (inactive) | 
COC(=O)c1cnc(Cl)cn1 | 41.4 µM (inactive) | 73.5 µM (inactive) | > 100 µM (inactive) | > 100 µM (inactive) | 50.2 µM (inactive) | 42.5 µM (inactive) | > 100 µM (inactive) | 20.2 µM (inactive) | 30.5 µM (inactive) | 24.9 µM (inactive) | 45.6 µM (inactive) | 33.3 µM (inactive) | 74.3 µM (inactive) | 17.3 | 57.9 µM (inactive) | 33.4 µM (inactive) | 29.4 µM (inactive) | > 100 µM (inactive) | 
NCCCCN(CCCN)C(=O)c1ccccc1 | > 100 µM (inactive) | > 100 µM (inactive) | > 100 µM (inactive) | > 100 µM (inactive) |  |  | > 100 µM (inactive) | > 100 µM (inactive) | > 100 µM (inactive) | > 100 µM (inactive) | > 100 µM (inactive) | > 100 µM (inactive) | > 100 µM (inactive) | > 100 | > 100 µM (inactive) |  | > 100 µM (inactive) | > 100 µM (inactive) | 
COC1=CC(=O)N(C(=O)[C@@H](OC(=O)[C@@H]2CCCN2C(=O)[C@@H]2CCCN2C(=O)[C@H](CC(C)C)N(C)C(=O)[C@@H](NC(=O)[C@@H](NC(=O)OCc2ccccc2)C(C)C)C(C)C)C(C)C)[C@H]1Cc1ccccc1 (Cbz-VV[NMeL]PP-X30) |  | > 100 µM (inactive) | 28.6 µM (inactive) | 20.3 µM (inactive) | > 100 µM (inactive) |  | 52.7 µM (inactive) | > 100 µM (inactive) | 34.8 µM (inactive) | > 100 µM (inactive) | > 100 µM (inactive) | > 100 µM (inactive) | 15 µM (inactive) | > 100 | 76 µM (inactive) | > 100 µM (inactive) | 79.1 µM (inactive) | > 100 µM (inactive) | > 100 µM (inactive)

Source: ChEMBL document CHEMBL1201862, “PubChem BioAssay data set” (2004)
